Test results: US20250017940A1, “SELECTIVE PEPTIDOMIMETIC MODULATORS OF CAV2.2 (N-TYPE) VOLTAGE-GATED CALCIUM CHANNELS AND USES THEREOF” (New York University, priority 2023, published 2025)

Key:
rat DRG sensory neurons = experiment: Whole-cell current-clamp, excitability of DRG sensory neurons; assay type: cell-based; design: rheobase: unit not given here
Method: Cav2.2 channels have critical roles in controlling the excitability of DRG neurons, according to earlier studies (Yang et al., 2018). Since Cav2.2 populations are affected by CBD3063, the ability of CBD3063 to alter the excitability of DRG sensory neurons was investigated (FIGS. 7A-D). Action potentials (AP) were elicited in rat sensory neurons during whole cell current-clamp tests in response to current injections from 0-120 pA after overnight incubation with 0.1% DMSO or 20 μM CBD3063.

[1] = target: T1, Cav2.3 (R-type) calcium channels (Rattus norvegicus, UniProt Q07652); experiment: Whole-cell patch-clamp, isolated R-type Ca2+ currents in DRG neurons; assay type: cell-based
T1 construct: Recordings were obtained from acutely dissociated DRG neurons; endogenous in cells; host or cells: acutely dissociated rat DRG neurons
Method: (§1) Recordings were obtained from acutely dissociated DRG neurons as described earlier (Bellampalli et al., 2019). Patch-clamp recordings were performed at room temperature (22-24° C.). Currents were recorded using an EPC 10 Amplifier-HEKA (HEKA Elektronik, Ludwigshafen, Germany) linked to a computer with Patchmaster software. DRG neurons were incubated overnight (˜16-24 hours) with 20 μM of CBD3063.
(§2) For total calcium current (ICa^2+) recordings, the external solution consisted of the following (in mM): 110 N-methyl-D-glucamine, 10 BaCl2, 30 TEA-Cl, 10 HEPES, 10 glucose, and 0.001 TTX (pH 7.29 adjusted with TEA-OH, and mOsm/L=310). Patch pipettes were filled with an internal solution containing (in mM): 150 CsCl2, 10 HEPES, 5 Mg-ATP, and 5 BAPTA, (pH 7.2 adjusted with CsOH, and mOsm/L-305). Peak Ca^2+ current was acquired by applying 200-millisecond voltage steps from −70 to +60 mV in 10-mV increments from a holding potential of −90 mV to obtain the current-voltage (I-V) relation. To measure the different subtypes of Ca^2+ channels, DRGs were treated with a Cav inhibitor cocktail omitting the inhibitor specific to the subtype being tested (e.g., to measure Cav2.2 currents, ω-conotoxin GVIA is omitted): Nifedipine (10 μM, L-type), ω-Conotoxin-GVIA (500 nM, […]) (Feng, et al., 2001), SNX482 (200 nM, R-type) (Newcomb et al., 1998), ω-agatoxin (200 nM, P/Q-type) (Mintz et al., 1992), TTA-P2 (1 μM, T-type) (Choe et al., 2011).
(§3) Normalization of currents to each cell's capacitance (pF) was performed to allow for collection of current density data. For I-V curves, functions were fitted to data using a non-linear least squares analysis. I-V curves were fitted using double Boltzmann functions:
(§4) where x is the pre-pulse potential, V1/2 is the mid-point potential, and k is the corresponding slope factor for single Boltzmann functions. Double Boltzmann fits were used to describe the shape of the curve, not to imply the existence of separate channel populations. Numbers 1 and 2 simply indicate first and second mid-points; a along with g are fitting parameters.
(§5) Activation curves were obtained from the I-V curves by dividing the peak current at each depolarizing step by the driving force according to the equation: G=I/(Vmem-Erev), where I is the peak current, Vmem is the membrane potential and Erev is the reversal potential. The conductance (G) was normalized against the maximum conductance (Gmax). For total and the different subtypes of Ca^2+ currents, steady-state inactivation (SSI) curves were obtained by applying an H-infinity protocol that consisted of 1.5-seconds conditioning pre-pulses from −100 to +30 mV in 10-mV increments followed by a 20-millisecond test pulse to +10 mV. For Na^+ currents, SSI curves were obtained by applying an H-infinity protocol that consisted of 1-second conditioning pre-pulses from −120 to +10 mV in 10-mV increments followed by a 200-millisecond test pulse to +10 mV. Inactivation curves were obtained by dividing the peak current recorded at the test pulse by the maximum current (Imax). Activation and SSI curves were fitted with the Boltzmann equation.

[2] = target: T2, Cav2.2 (N-type) calcium channels (Rattus norvegicus, UniProt Q02294); experiment: Whole-cell patch-clamp, isolated N-type Ca2+ currents in DRG neurons; assay type: cell-based; conditions: for normalized peak N-type ICa2+ density: normalized to DMSO (1.00±0.07)
T2 construct: Recordings were obtained from acutely dissociated DRG neurons; endogenous in cells; host or cells: primary rat DRG neurons
T2 sequence (Q02294 whole entry): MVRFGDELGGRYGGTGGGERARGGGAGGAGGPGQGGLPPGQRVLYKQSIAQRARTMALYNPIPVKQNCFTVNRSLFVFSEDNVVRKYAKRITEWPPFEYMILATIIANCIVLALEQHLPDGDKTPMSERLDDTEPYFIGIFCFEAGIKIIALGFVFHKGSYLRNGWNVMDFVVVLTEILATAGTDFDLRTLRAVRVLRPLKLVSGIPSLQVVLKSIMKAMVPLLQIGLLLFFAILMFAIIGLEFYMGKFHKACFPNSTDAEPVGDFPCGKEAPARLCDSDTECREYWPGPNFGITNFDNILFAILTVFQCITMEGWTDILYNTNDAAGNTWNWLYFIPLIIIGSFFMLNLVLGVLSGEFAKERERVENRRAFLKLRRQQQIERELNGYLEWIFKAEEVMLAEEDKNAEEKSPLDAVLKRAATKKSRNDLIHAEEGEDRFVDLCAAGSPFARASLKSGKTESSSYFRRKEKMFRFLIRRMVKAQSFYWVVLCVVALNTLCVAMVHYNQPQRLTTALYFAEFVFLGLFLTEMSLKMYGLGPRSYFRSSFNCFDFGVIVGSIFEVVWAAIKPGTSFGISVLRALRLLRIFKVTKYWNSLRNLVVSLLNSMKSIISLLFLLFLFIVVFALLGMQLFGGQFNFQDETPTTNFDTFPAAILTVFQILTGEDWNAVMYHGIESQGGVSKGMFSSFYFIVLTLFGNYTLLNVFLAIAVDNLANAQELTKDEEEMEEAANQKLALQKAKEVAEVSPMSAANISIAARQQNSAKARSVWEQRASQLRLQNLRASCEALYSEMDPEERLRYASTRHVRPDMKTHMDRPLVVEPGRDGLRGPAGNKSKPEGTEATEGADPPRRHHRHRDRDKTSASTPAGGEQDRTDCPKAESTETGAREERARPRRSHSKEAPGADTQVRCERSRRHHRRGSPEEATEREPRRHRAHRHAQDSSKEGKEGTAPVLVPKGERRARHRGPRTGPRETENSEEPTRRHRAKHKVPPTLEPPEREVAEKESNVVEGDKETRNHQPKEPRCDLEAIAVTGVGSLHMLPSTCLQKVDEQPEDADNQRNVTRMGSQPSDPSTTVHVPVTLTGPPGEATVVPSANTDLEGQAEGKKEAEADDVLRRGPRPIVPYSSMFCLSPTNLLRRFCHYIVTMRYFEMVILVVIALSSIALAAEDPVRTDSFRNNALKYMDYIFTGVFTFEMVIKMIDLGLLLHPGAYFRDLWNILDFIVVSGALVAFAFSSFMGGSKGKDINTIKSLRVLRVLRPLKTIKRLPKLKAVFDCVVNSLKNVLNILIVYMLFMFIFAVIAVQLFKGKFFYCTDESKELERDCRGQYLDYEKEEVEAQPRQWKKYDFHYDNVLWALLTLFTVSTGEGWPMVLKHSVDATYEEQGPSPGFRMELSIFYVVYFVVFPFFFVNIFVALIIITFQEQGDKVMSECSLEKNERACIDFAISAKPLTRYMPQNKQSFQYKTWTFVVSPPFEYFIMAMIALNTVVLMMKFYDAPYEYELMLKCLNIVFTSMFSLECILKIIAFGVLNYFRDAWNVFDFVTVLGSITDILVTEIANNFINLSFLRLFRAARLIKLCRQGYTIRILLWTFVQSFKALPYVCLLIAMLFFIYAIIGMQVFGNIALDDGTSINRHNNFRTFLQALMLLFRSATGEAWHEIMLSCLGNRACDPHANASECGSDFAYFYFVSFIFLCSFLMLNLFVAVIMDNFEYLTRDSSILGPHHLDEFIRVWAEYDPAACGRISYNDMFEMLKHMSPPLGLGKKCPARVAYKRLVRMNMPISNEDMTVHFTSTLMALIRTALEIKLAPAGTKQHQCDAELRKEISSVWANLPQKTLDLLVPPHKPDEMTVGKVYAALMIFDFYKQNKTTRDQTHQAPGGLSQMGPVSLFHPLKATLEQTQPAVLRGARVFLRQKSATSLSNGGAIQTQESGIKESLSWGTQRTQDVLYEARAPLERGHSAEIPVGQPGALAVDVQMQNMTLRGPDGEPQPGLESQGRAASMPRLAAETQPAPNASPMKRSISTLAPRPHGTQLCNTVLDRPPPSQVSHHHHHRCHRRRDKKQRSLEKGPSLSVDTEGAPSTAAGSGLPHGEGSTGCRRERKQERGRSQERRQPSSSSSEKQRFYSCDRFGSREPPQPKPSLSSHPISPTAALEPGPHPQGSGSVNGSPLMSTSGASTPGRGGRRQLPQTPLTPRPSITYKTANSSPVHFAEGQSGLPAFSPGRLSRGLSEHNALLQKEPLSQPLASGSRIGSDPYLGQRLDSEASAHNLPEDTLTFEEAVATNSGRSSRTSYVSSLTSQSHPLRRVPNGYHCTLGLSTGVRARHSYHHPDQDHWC
T2 sequence (P54290 25-1091 partner): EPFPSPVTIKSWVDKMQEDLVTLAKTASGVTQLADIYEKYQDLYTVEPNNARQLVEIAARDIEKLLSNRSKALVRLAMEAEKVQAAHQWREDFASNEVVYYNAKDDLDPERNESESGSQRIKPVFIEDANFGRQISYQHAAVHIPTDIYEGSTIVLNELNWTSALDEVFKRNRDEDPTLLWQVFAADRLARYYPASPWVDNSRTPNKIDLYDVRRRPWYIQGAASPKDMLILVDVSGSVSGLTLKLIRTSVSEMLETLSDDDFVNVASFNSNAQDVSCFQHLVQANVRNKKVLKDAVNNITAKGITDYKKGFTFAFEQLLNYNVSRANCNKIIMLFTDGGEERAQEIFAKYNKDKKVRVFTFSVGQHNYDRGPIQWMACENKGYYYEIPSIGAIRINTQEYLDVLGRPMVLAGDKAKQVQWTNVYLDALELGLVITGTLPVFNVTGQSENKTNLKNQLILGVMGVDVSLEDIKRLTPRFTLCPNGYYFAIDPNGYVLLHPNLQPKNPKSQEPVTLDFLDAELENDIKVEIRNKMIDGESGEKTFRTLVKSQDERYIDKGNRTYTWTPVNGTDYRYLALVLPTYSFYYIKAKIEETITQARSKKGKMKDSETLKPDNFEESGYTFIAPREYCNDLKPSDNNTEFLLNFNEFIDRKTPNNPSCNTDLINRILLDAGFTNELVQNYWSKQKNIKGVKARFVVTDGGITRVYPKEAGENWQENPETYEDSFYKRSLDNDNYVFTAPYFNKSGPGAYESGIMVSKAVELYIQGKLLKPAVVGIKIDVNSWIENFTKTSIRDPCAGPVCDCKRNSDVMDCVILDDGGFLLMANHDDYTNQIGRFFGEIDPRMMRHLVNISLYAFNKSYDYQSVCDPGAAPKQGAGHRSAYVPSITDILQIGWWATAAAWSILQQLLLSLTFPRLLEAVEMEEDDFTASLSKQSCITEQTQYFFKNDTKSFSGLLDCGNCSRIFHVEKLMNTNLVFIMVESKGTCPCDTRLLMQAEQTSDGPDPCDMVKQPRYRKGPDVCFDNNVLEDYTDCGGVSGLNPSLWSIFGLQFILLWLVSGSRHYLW
T2 sequence (P54287 whole entry partner): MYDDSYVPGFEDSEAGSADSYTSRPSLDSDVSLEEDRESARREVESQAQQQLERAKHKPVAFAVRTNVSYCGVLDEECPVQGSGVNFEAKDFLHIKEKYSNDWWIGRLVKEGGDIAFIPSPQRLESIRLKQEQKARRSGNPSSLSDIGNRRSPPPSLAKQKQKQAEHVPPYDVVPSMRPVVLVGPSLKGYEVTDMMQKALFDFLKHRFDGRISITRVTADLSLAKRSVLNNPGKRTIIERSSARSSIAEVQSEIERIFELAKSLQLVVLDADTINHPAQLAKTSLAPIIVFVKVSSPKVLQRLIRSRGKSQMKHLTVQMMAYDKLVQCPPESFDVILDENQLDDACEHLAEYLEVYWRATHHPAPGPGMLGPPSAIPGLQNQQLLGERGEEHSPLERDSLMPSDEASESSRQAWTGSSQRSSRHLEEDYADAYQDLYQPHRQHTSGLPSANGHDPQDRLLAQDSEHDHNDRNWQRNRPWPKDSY
Method: as §1, with “DRG neurons were incubated overnight (˜16-24 hours) with 20 μM of CBD3063.” left out
as §2, §3, §4, §5

[3] = system: voltage-gated potassium channels; experiment: Whole-cell patch-clamp, total potassium currents in DRG neurons; assay type: cell-based, rat; conditions: 20 μM (DMSO: 420.9±54.19)
Method: as §1
To isolate potassium currents (IK+), DRG neurons were bathed in external solution composed of (in millimolar): 140 N-methyl-glucamine chloride, 5 KCl, 1 MgCl2, 2 CaCl2, 10 D-glucose, and 10 HEPES (pH adjusted to 7.3 with KOH and mOsm/L=313). Recording pipettes were filled with internal solution containing (in mM): 140 KCl, 2.5 MgCl2, 4 Mg-ATP, 0.3 Na-GTP, 2.5 CaCl2), 5 EGTA, and 10 HEPES (pH adjusted to 7.3 with KOH and mOsm/L=320). From a holding potential of −60 mV, IK activation was determined by applying 300-millisecond voltage steps from −80 to +60 mV in 10-mV increments.
Normalization of currents to each cell's capacitance (pF) was performed to allow for collection of current density data. For I-V curves, functions were fitted to data using a non-linear least squares analysis. I-V curves were fitted using double Boltzmann functions: […]

[4] = system: Cav3 (T-type) calcium channels; experiment: Whole-cell patch-clamp, isolated T-type Ca2+ currents in DRG neurons; assay type: cell-based, rat
Method: as §1, §2, §3, §4, §5

[5] = system: Cav1 (L-type) calcium channels; experiment: Whole-cell patch-clamp, isolated L-type Ca2+ currents in DRG neurons; assay type: cell-based, rat
Method: as §1, §2, §3, §4, §5

[6] = 20 μM overnight, mean ± SEM (n cells)

Structure (SMILES): CC(=O)N[C@@H]1CCCN(C(=O)NCCCNc2ccccn2)C1 [CBD3063, (3R)-3-acetamido-N-[3-(pyridin-2-ylamino)propyl]piperidine-1-carboxamide]
- rheobase (rat DRG sensory neurons; 20 μM overnight (DMSO: 15.00±3.416)): 48.33±9.098
- resting membrane potential (rat DRG sensory neurons; 20 μM overnight (DMSO: −44.50±1.478)): −50.00±1.915 mV
- number of evoked action potentials (rat DRG sensory neurons; 20 μM overnight, current injection steps 10 to 120 pA): reduced the number of evoked APs
- effect on Ca2+ influx through Cav2.3 (R-type) channels (current density-voltage curve, peak current density) ([1]; 20 μM overnight vs 0.1% DMSO): does not alter
- R-type Ca2+ currents, activation V1/2 [1, 6]: −4.098 ± 0.693 (11) mV
- R-type Ca2+ currents, activation k (slope factor) [1, 6]: 7.244 ± 0.579 (11)
- R-type Ca2+ currents, inactivation V1/2 [1, 6]: −16.840 ± 2.186 (11) mV
- R-type Ca2+ currents, inactivation k (slope factor) [1, 6]: −11.870 ± 1.850 (11)
- normalized peak N-type ICa2+ density ([2]; 2 μM overnight): 0.93±1.07
- peak N-type calcium current density ([2]; 20 μM overnight, +10 mV (DMSO: −104.00±11.32)): −69.18±6.54 pA/pF
- decrease of N-type currents at peak current density ([2]; 20 μM overnight, +10 mV, vs control group): ~33.5%
- N-type Ca2+ currents, activation V1/2 [2, 6]: −5.275 ± 0.669 (17) mV
- N-type Ca2+ currents, activation k (slope factor) [2, 6]: 5.616 ± 0.566 (17)
- N-type Ca2+ currents, inactivation V1/2 [2, 6]: −31.129 ± 2.169 (17) mV
- N-type Ca2+ currents, inactivation k (slope factor) [2, 6]: −17.247 ± 2.104 (17)
- normalized peak N-type ICa2+ density ([2]; 20 μM overnight): 0.74±0.04
- normalized peak N-type ICa2+ density ([2]; 50 μM overnight): 0.65±0.06
- peak potassium current density [3]: 422.1±52.70 pA/pF
- effect on Ca2+ influx through Cav3 (T-type) channels (current density-voltage curve, peak current density) ([4]; 20 μM overnight vs 0.1% DMSO): does not alter
- T-type Ca2+ currents, activation V1/2 [4, 6]: −10.982 ± 1.992 (10) mV
- T-type Ca2+ currents, activation k (slope factor) [4, 6]: 9.924 ± 1.628 (10)
- T-type Ca2+ currents, inactivation V1/2 [4, 6]: −35.122 ± 2.752 (10) mV
- T-type Ca2+ currents, inactivation k (slope factor) [4, 6]: −12.929 ± 2.490 (10)
- effect on Ca2+ influx through Cav1 (L-type) channels (current density-voltage curve, peak current density) ([5]; 20 μM overnight vs 0.1% DMSO): does not alter
- L-type Ca2+ currents, activation V1/2 [5, 6]: −2.704 ± 0.710 (7) mV
- L-type Ca2+ currents, activation k (slope factor) [5, 6]: 5.528 ± 0.615 (7)
- L-type Ca2+ currents, inactivation V1/2 [5, 6]: −10.128 ± 2.133 (7) mV
- L-type Ca2+ currents, inactivation k (slope factor) [5, 6]: −4.961 ± 1.976 (7)
